Experimental data taken from US20250331519A1, “HERBICIDAL DERIVATIVES” (SYNGENTA CROP PROTECTION AG, priority 2022, published 2025).

Key:
Assay type in all cases: in vivo
[1] = tested on: Amaranthus palmeri (AMAPA); assay: Pre-emergence herbicidal glasshouse test; conditions: evaluated after 13 days, five-point scale
Zea mays (ZEAMX) [2] = assay: Post-emergence herbicidal glasshouse test; conditions: sprayed after 8 days cultivation, evaluated after 13 days, five-point scale
Description: (§1) Seeds of a variety of test species are sown in standard soil in pots (Ipomoea hederacea (IPOHE), Setaria faberi (SETFA), Zea mays (ZEAMX), Echinochloa crus-galli (ECHCG), Amaranthus palmeri (AMAPA), Amaranthus retoflexus (AMARE)). After 8 days cultivation under controlled conditions in a glasshouse (at 24° C./16° C., day/night; 14 hours light; 65% humidity), the plants are sprayed with an aqueous spray solution derived from the formulation of the technical active ingredient in acetone/water (50:50) solution containing 0.5% Tween 20 (polyoxyethelyene sorbitan monolaurate, CAS RN 9005-64-5). Compounds are applied at 1000 g/ha unless otherwise stated. The test plants are then grown in a glasshouse under controlled conditions in a glasshouse (at 24° C./16° C., day/night; 14 hours light; 65% humidity) and watered twice daily. After 13 days the test is evaluated for the percentage damage caused to the plant. The biological activities are shown in the following table on a five-point scale (5=81-100%; 4=61-80%; 3=41-60%; 2=21-40%; 1=0-20%; -=not tested).

Setaria faberi (SETFA) [3] = assay: Post-emergence herbicidal glasshouse test; conditions: sprayed after 8 days cultivation, evaluated after 13 days, five-point scale
Description: as §1

[4] = tested on: Echinochloa crus-galli (ECHCG); assay: Post-emergence herbicidal glasshouse test; conditions: sprayed after 8 days cultivation, evaluated after 13 days, five-point scale
Description: as §1

[5] = tested on: Ipomoea hederacea (IPOHE); assay: Post-emergence herbicidal glasshouse test; conditions: sprayed after 8 days cultivation, evaluated after 13 days, five-point scale
Description: as §1

[6] = tested on: Amaranthus retoflexus (AMARE); assay: Post-emergence herbicidal glasshouse test; conditions: sprayed after 8 days cultivation, evaluated after 13 days, five-point scale
Description: as §1

[7] = tested on: Amaranthus palmeri (AMAPA); assay: Post-emergence herbicidal glasshouse test; conditions: sprayed after 8 days cultivation, evaluated after 13 days, five-point scale
Description: as §1

Zea mays (ZEAMX) [8] = assay: Pre-emergence herbicidal glasshouse test; conditions: evaluated after 13 days, five-point scale
[9] = tested on: Echinochloa crus-galli (ECHCG); assay: Pre-emergence herbicidal glasshouse test; conditions: evaluated after 13 days, five-point scale
[10] = tested on: Amaranthus retoflexus (AMARE); assay: Pre-emergence herbicidal glasshouse test; conditions: evaluated after 13 days, five-point scale
Setaria faberi (SETFA) [11] = assay: Pre-emergence herbicidal glasshouse test; conditions: evaluated after 13 days, five-point scale
[12] = tested on: Ipomoea hederacea (IPOHE); assay: Pre-emergence herbicidal glasshouse test; conditions: evaluated after 13 days, five-point scale

SMILES	percentage damage caused to the plant, ZEAMX (Zea mays (ZEAMX) [2]; 1000 g/ha)	percentage damage caused to the plant, SEFTA (Setaria faberi (SETFA) [3]; 1000 g/ha)	percentage damage caused to the plant, ECHCG ([4]; 1000 g/ha)	percentage damage caused to the plant, IPOHE ([5]; 1000 g/ha)	percentage damage caused to the plant, ZEAMX (Zea mays (ZEAMX) [8]; 1000 g/ha)	percentage damage caused to the plant, ECHCG ([9]; 1000 g/ha)	percentage damage caused to the plant, SEFTA (Setaria faberi (SETFA) [11]; 1000 g/ha)	percentage damage caused to the plant, IPOHE ([12]; 1000 g/ha)	further results
CCn1c(C)c(-n2ccc(C(F)(F)F)n2)c(=O)c(C(=O)O)c1-c1ccc(Cl)c(Cl)c1 [Compound 1, 2-(3,4-dichlorophenyl)-1-ethyl-6-methyl-4-oxo-5-[3-(trifluoromethyl)pyrazol-1-yl]pyridine-3-carboxylic acid]	1 (1=0-20%)	1 (1=0-20%)	1 (1=0-20%)	2 (2=21-40%)	0	0	1 (1=0-20%)	4 (4=61-80%)	percentage damage caused to the plant, AMAPA ([1]; 1000 g/ha): 0; percentage damage caused to the plant, AMARE ([6]; 1000 g/ha): 2 (2=21-40%); percentage damage caused to the plant, AMAPA ([7]; 1000 g/ha): 3 (3=41-60%); percentage damage caused to the plant, AMARE ([10]; 1000 g/ha): 0
CCn1c(C)c(-n2ccc(Cl)n2)c(=O)c(C(=O)O)c1-c1ccc(Cl)c(Cl)c1 [Compound 2, 5-(3-chloropyrazol-1-yl)-2-(3,4-dichlorophenyl)-1-ethyl-6-methyl-4-oxo-pyridine-3-carboxylic acid]	3 (3=41-60%)	4 (4=61-80%)	4 (4=61-80%)	4 (4=61-80%)	1 (1=0-20%)	0	3 (3=41-60%)	4 (4=61-80%)	
CCn1c(C)c(-n2cc(Cl)cn2)c(=O)c(C(=O)O)c1-c1ccc(Cl)c(Cl)c1 [Compound 3, 5-(4-chloropyrazol-1-yl)-2-(3,4-dichlorophenyl)-1-ethyl-6-methyl-4-oxo-pyridine-3-carboxylic acid]									percentage damage caused to the plant, AMAPA ([1]; 250 g/Ha): 0; percentage damage caused to the plant, ZEAMX (Zea mays (ZEAMX) [2]; 250 g/Ha): 2 (2=21-40%); percentage damage caused to the plant, SEFTA (Setaria faberi (SETFA) [3]; 250 g/Ha): 3 (3=41-60%); percentage damage caused to the plant, ECHCG ([4]; 250 g/Ha): 3 (3=41-60%); percentage damage caused to the plant, IPOHE ([5]; 250 g/Ha): 2 (2=21-40%); percentage damage caused to the plant, AMARE ([6]; 250 g/Ha): 3 (3=41-60%); percentage damage caused to the plant, AMAPA ([7]; 250 g/Ha): 3 (3=41-60%); percentage damage caused to the plant, ZEAMX (Zea mays (ZEAMX) [8]; 250 g/Ha): 0; percentage damage caused to the plant, ECHCG ([9]; 250 g/Ha): 1 (1=0-20%); percentage damage caused to the plant, AMARE ([10]; 250 g/Ha): 0; percentage damage caused to the plant, SEFTA (Setaria faberi (SETFA) [11]; 250 g/Ha): 2 (2=21-40%); percentage damage caused to the plant, IPOHE ([12]; 250 g/Ha): 0
